Values joined by “and” are separate entries in the source; they are usually repeats but may differ in a detail not shown here. Identical values can stand only once.
Assays:
[1] = system: DCIS lesions; experiment: Ki-67 labeling index by immunohistochemistry, phase II presurgical trial of 4-OHT gel vs oral tamoxifen; format: in vivo, human; settings: for Ki-67 baseline: Ki-67 LI of DCIS lesions before treatment
Text: Women at risk for thromboembolic disease were excluded, as were those with a history of exogenous hormone use within the past month, and tamoxifen or raloxifene use within the past two years. Randomization was stratified by menopausal status, and enrollment site. Initially, the FDA required exclusions for grade 3 and comedo-type DCIS, mammographic DCIS size of >5 cm, and palpable lesions; these were removed following enrollment of nine subjects in the first year.
(§1) All participants provided informed consent. Baseline assessments included a history and physical, explanation of gel application, completion of the Breast Cancer Prevention Trial Eight Symptom Scale (BESS) questionnaire, collection of a venous blood sample, and collection of nipple aspirate fluid (NAF) from NAF yielders. […] Treatment began within 5 days post-randomization and ended on the day prior to surgical resection. Participants were instructed to apply the gel to the entire skin envelope of each breast each morning, after a shower. Duration of therapy was 6-10 weeks. Compliance was assessed through participant diaries, counts of returned pills and of returned gel canisters. Participants who took at least 80% of the prescribed dose were considered compliant.
(§2) Assessments similar to those performed at baseline were repeated on the day prior to, or on the morning of surgery. During surgery, breast adipose tissue from the surgical sample was snap frozen and stored at −80° C. for measurement of tamoxifen and metabolites. The samples were obtained from a location adjacent to the DCIS lesion to provide uniformity between participants undergoing breast conservation and mastectomy. The paraffin block of the core and excision samples were acquired by the recruiting institution and 10 sections from each specimen were submitted to the NU Pathology Core Facility. The sections were cut in batches (with pre- and post-treatment samples in the same batch), shipped cold, and processed for immunohistochemistry within four weeks.
Secondary endpoints were 1) to compare concentrations of tamoxifen and its metabolites [4-OHT, endoxifen, N-desmethyl tamoxifen (NDT)] in breast tissue, plasma and NAF obtained on the day of surgery; 2) to assess changes in known tamoxifenmodulated pathways in the breast (COX-2 and maspin protein expression, [19,20]) and plasma (SHBG, IGF-1 [14]). Side effect endpoints were 1) the incidence of hot flashes at baseline and before surgery; 2) changes in coagulation related proteins in women on the gel and the oral arms from baseline to immediately before surgery.
Immunohistochemical (IHC) assessment of these markers was performed on paraffin embedded sections of the core and excision specimens, using standard IHC techniques and MCF7, HCT116 and H292 cells as controls. For maspin we used primary mouse monoclonal antibody (Clone-G167-70,BD Pharmingen, San Jose, Calif.), dilution 1:200; for COX-2, primary mouse monoclonal antibody (Clone-CX-294, Dako, Denmark), dilution 1:100-; and for Ki67, primary mouse monoclonal antibody (Clone-MIB-1, Dako, Denmark), dilution 1:100-antigen. Dako Envision Plus system HRP labeled polymer for 20 min at 37° C. was used as the detection system. Scoring was performed on DCIS lesions only, with manual counting of positively stained DCIS cells. The Ki67 LI was assessed on an average of 300 DCIS cells at 40× magnification. The H score system (Score range: 0-300) was used for COX-2 and maspin markers by a single observer who was blinded to treatment status, with random verification of 20% of slides by a pathologist (PK).

[2] = system: von Willebrand factor; experiment: Plasma von Willebrand factor immuno-turbidimetric assay, presurgical trial; format: in vivo, human; settings: mean ± SD
Method: (§3) Plasma samples collected with anticoagulant K3-EDTA were used for human IGF-1 and SHBG assays, and coagulation protein assays (factor VIII, factor IX, von Willebrand factor, and protein S)[23]. The human IGF-1 and SHBG assays were performed with Quantikine Enzyme-linked immunosorbent assay (ELISA) Kits (R&D Systems, Cat # DG100 for IGF-1, and Cat # DSHBGO for SHBG assay). The lower limit of detection was 56 pg/ml, and 5 pmol/L; % CV values were 4.3 and 5.6 for IGF-1, and SHBG assay, respectively. Factor VIII, and factor IX were determined with VisuLize™ antigen ELISA kits (Affinity Biologicals Inc.). von Willebrand factor was measured with immune-turbidimetric assay (Diagnostica Stago Inc. Cat #00518) by STAR analyzer, and total protein S was assayed with an ELISA kit (REAADSR Inc.)

[3] = system: factor VIII; experiment: Plasma factor VIII antigen ELISA, presurgical trial; format: in vivo, human; settings: mean ± SD
Method: as §3

[4] = Study 1: oral tamoxifen vs transdermal 4-OHT and endoxifen gel, mammary and plasma concentrations; settings: for concentration at 6 weeks: athymic nude (Hsd:RHFoxn1^rnu/rnu), rat, oral, 3 mg/kg/day
Method: (Z) tamoxifen was prepared as 3 mg/mL in sesame oil. For transdermal gel formulations, 4-OHT (E:Z=50:50) (1 mg/mL), (Z) endoxifen (1 mg/mL), and telapristone (1.5 mg/mL) were prepared in 60% (v/v) ethanol-phosphate buffer containing 0.5% (v/v) oleic acid [13] with 1.5% (w/v) Klucel hydroxypropyl cellulose.
Athymic nude rats (Hsd:RHFoxn1^rnu/rnu, Harlan Laboratories, Inc.) were provided with standard laboratory food and water ad libitum. […] In the gel groups, animals were anesthetized with isoflurane inhalation; the skin surface of axillary mammary glands was cleaned with alcohol swabs and air-dried; 0.1 mL drug gel was applied using a template with an exposed ellipse (π×R1×R2=π1 cm×0.6 cm) around the no. 2 nipple on each side and allowed to dry (total of 1, 0.5 mg/kg/day on each side); animals wore jackets fitted over the forelegs, to prevent loss of gel through grooming.
In both studies, rats were euthanized after 6 weeks of treatment for blood and tissue collections. The treated skin area was cleansed with alcohol prior to dissection. Blood samples were collected from the heart. We collected the whole mammary glands (1 axillary and 1 inguinal) per animal and measured their drug concentrations separately.
The concentrations of all the drugs used in rats and humans were determined by liquid chromatography-tandem mass spectroscopy (API 3000; AB SCIEX, Foster City, Calif., USA). […] The mobile phase was A: 0.1% formic acid in water (v/v) and B: 0.1% formic acid in acetonitrile (v/v). Details of sample processing and quantitation methods are described below. The lowest limits of quantification (LLOQ) were as follow: tamoxifen and N-desmethyl tamoxifen (NDT) (plasma 10 ng/mL; tissue 40 ng/g); 4-OHT and endoxifen (plasma 0.5 ng/mL; tissue 2 ng/g); telapristone and N-desmethyl telapristone (d-telapristone) (plasma 1 ng/mL; tissue 1.5 ng/g); and diclofenac (plasma 0.5 ng/mL; tissue 2 ng/g).
For preclinical studies, the summary statistics as medians and interquartile range (IQR) were reported by treatment group for each analyte obtained from plasma, axillary, and inguinal mammary glands. Concentration differences of each analyte between treatment groups and differences between mammary glands within each treatment group were assessed via the Wilcoxon rank-sum test, and the Wilcoxon signed rank-sum test, respectively.
(Z) tamoxifen and metabolites [(Z) NDT, (E) 4-OHT, and (Z) 4-OHT, (Z) endoxifen] were determined using LC-MS/MS (API 3000; AB SCIEX, Foster City, Calif.). A 100 μL aliquot of plasma was mixed with 200 μL of acetonitrile containing 1 ng each of the deuterated analogs of the analytes (TRC, Toronto, Canada). […]

[5] = system: MCF7 xenograft; settings: simulation using human PK; cited from earlier work
[6] = Plasma, breast adipose tissue and NAF concentrations of tamoxifen and its metabolites (LC-MS/MS), presurgical trial; format: in vivo, human
Text: as §1, §2
(Z)-tamoxifen, (Z)-NDT, (E) and (Z)-4-OHT, and (Z)-endoxifen were measured by liquid chromatography-tandem mass spectrometry with a turbo ion spray interface operating in positive mode (API 3000; AB SCIEX, Foster City, Calif.). […] For analysis of NAF, samples were collected in a capillary tube and diluted with 200 μL of phosphate buffered saline; 100 μL of the diluted NAF sample was used for analysis. Breast adipose tissue samples, 25 mg, were minced and treated with 125 μL of […] and extracted as described above.
Retention times for (Z)-tamoxifen, (Z)-NDT, (Z)-4-OHT, (E)-4-OHT and (Z)-endoxifen were 7.3, 6.8, 5.1, 4.7 and 4.5 min, respectively. […] In three participants, matched samples were not available: breast adipose tissue was not collected in two, and the plasma sample was missing in one.
Since the fraction of E and Z isoforms of 4-OHT was of particular interest, we used an additional validated method to study plasma concentrations of these metabolites in a different laboratory (Eurofins Medinet, Chantilly, Va.): Plasma from blood samples collected in lithium-heparin tubes was frozen at −20° C., shipped in batches on dry ice to them Eurofins Medinet central laboratory; LC-MS/MS was used for the simultaneous determination of (E) 4-OHT and (Z) 4-OHT, with a lower limit of quantitation (LOQ) of 10 pg/mL and upper LOQ of 10,000 pg/mL. Eurofins Medinet developed and validated them method for BHR Pharma, in accordance with the FDA Guidance on Bioanalytical Method Validation.

[7] = at surgery after 6-10 weeks, mean ± SD, LLOQ 3 ng/g

## CC/C(=C(\c1ccccc1)c1ccc(OCCN(C)C)cc1)c1ccccc1 [Tamoxifen, (Z)-tamoxifen]
[1]; Ki-67 LI of DCIS lesions after 6-10 weeks, mean ± SD
  Ki-67 post-treatment: 3.2 ± 2.3%
[1]; mean ± SD
  Ki-67 baseline: 8.3%
[1]; mean ± SD, listed as Oral-T
  Ki-67 baseline: 8.3 ± 5.2%
[1]; Ki-67 LI of DCIS lesions, 6-10 weeks, mean ± SD
  Ki-67 Changes from baseline: −5.1 ± 5.5%
[1]; decrease from baseline in DCIS lesions, 6-10 weeks
  mean reduction of Ki-67 LI post-therapy: 5.1%
[1]; relative decrease, DCIS lesions
  drop in Ki67-LI relative to baseline: 61%
[2]; plasma after 6-10 weeks
  % vWF post-treatment: 218.6 ± 134.6%
[2]; plasma before treatment
  % vWF baseline: 167.4 ± 89.2%
[2]; plasma
  % vWF Changes from baseline: 51.2 ± 71.0%
[3]; plasma after 6-10 weeks
  % Factor VIII post-treatment: 168.7 ± 51.6%
[3]; plasma before treatment
  % Factor VIII baseline: 157.1 ± 47.5%
[3]; plasma
  % Factor VIII Changes from baseline: 11.6 ± 17.3%
[4]; axillary mammary gland
  concentration at 6 weeks: 44.2 ng/g
[4]; inguinal mammary gland
  concentration at 6 weeks: 69.6 ng/g
[4]; plasma
  concentration at 6 weeks: 8 ng/mL
[4]; rats, end of 6 week experiment
  deaths, weight loss, general health, skin irritation: no deaths, no weight loss, and no skin irritation
[5]
  TGI at day 21, 20 mg/day oral: 63%
[6]; after 6-10 weeks, mean ± SD, LLOQ 1 ng/mL
  (E) 4-OHT concentration, plasma: BQL
[6]; after 6-10 weeks, mean ± SD, LLOQ 20 ng/mL
  (Z) Tamoxifen concentration, plasma: 90 ± 45 ng/mL
[6]; [7]
  (E) 4-OHT concentration, breast adipose tissue: BQL
  (Z) Tamoxifen concentration, breast adipose tissue: 2959 ± 1035 ng/g
[6]; participants A, B and one with undetectable NAF levels, listed as oral-T
  plasma concentration of tamoxifen, individual participants: 54 ng/mL and 94.3 ng/mL and 160 ng/mL
[6]; post-treatment nipple aspirate fluid
  NAF concentration of endoxifen: undetectable
[6]; post-treatment nipple aspirate fluid, participants A, B, listed as oral-T
  NAF concentration of tamoxifen, individual participants: 320 ng/mL and 182 ng/mL
[6]; post-treatment nipple aspirate fluid, participants C, D
  NAF concentration of 4-OHT ((Z) 4-OHT), individual participants: undetectable
